The target in assay [1] is T1, Peroxisome proliferator-activated receptor gamma (Homo sapiens, UniProt P37231).
T1 sequence (P37231 whole entry): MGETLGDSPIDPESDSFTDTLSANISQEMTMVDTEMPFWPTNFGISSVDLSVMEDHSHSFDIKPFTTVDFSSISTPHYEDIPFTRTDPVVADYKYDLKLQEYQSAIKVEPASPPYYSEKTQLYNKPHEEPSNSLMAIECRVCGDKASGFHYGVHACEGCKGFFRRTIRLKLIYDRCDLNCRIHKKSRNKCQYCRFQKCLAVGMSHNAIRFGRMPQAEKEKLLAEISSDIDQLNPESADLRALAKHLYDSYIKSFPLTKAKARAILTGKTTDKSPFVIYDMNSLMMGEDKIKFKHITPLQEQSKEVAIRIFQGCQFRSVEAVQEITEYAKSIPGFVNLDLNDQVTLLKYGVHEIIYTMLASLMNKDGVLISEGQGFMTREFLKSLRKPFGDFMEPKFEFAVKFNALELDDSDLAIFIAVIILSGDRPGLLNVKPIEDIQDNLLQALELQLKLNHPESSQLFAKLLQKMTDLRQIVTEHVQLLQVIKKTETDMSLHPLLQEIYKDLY
Description: Activation of Gal4-tagged human PPARgamma expressed in CHO cells by luciferase reporter gene assay

The nature of assay [2]: Induction of adipocyte differentiation in mouse 3T3-L1 cells at 10 uM.

We go through eleven compounds from ChEMBL document CHEMBL1212876, “Characterization of new PPARgamma agonists: benzimidazole derivatives-importance of positions 5 and 6, and computational studies on the binding mode” (Bioorg Med Chem, 2010).

Regarding `CCCc1nc2ccc(C(O)c3ccccc3)cc2n1Cc1ccc(-c2ccccc2C(=O)O)cc1` (stereo not given), in assay [1], the EC50 (usually the midpoint of the concentration-response curve) worked out at 3500 nM. Besides, the Activity in assay [2] came to 88%.
In turn, `CCCc1nc2cc(Br)ccc2n1Cc1ccc(-c2ccccc2C(=O)O)cc1` displayed an Activity in assay [2] of 103%.
In turn, `CCCc1nc2ccccc2n1Cc1ccc(-c2ccccc2C(=O)O)cc1` came in with an EC50 in assay [1] of 1900 nM. In assay [2], this compound came in with an Activity of 67%.
In the case of `CCCc1nc2ccc(C(=O)c3ccccc3)cc2n1Cc1ccc(-c2ccccc2C(=O)O)cc1`, a half-maximal response in assay [1] (EC50) required 620 nM. The compound also yielded an Activity in assay [2] of 97%.
The like results for `CCCc1nc2cc(Br)c(Br)cc2n1Cc1ccc(-c2ccccc2C(=O)O)cc1` were, in that order, 400 nM and 74%.
In the same order, the values of `CCCc1nc2cc3ccccc3cc2n1Cc1ccc(-c2ccccc2C(=O)O)cc1` are 260 nM and 105%.
In the same order, the values of `CCCc1nc2cc(C(O)c3ccccc3)ccc2n1Cc1ccc(-c2ccccc2C(=O)O)cc1` (stereo not given) are 2900 nM and 100%.
Take `CCCc1nc2ccc(Br)cc2n1Cc1ccc(-c2ccccc2C(=O)O)cc1`: the EC50 in assay [1] worked out at 470 nM. The Activity in assay [2] came out at 102%.
In the same order, the values of `CCCc1nc2c(C)cc(-c3nc4ccccc4n3C)cc2n1Cc1ccc(-c2ccccc2C(=O)O)cc1` are 3400 nM and 70%.
Regarding `CCc1ccc(CCOc2ccc(CC3SC(=O)NC3=O)cc2)nc1` (stereo not given) [PIOGLITAZONE], the Activity in assay [2] turned out to be 100%.
In the case of `CCCc1nc2cc(C(=O)c3ccccc3)ccc2n1Cc1ccc(-c2ccccc2C(=O)O)cc1`, the EC50 in assay [1] amounted to 580 nM. In addition, the Activity in assay [2] was 104%.
